Experimental findings from patent publication US20240116910A1, “Heterocycles as WIP1 Inhibitors” (PMV Pharmaceuticals, Inc., priority 2022, published 2024) are described below.

Molecules are shown by their SMILES.

Usually IC50 stands for the concentration that inhibits the measured activity by half.

Chain of recombinant His-tag Wip1(2-420) protein (amino acids #2-420) (O15297 2-420): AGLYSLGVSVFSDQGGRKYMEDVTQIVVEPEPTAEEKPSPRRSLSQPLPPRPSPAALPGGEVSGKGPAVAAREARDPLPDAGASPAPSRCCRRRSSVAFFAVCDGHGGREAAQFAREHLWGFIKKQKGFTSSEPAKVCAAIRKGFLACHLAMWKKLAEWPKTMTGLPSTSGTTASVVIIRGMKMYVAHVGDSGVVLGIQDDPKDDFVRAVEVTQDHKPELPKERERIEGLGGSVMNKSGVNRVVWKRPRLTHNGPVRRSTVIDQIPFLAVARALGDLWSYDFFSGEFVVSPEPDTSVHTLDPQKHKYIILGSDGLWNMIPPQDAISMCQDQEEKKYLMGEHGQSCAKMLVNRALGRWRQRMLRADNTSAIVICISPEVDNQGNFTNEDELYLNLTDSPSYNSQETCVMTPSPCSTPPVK

This experiment concerns the target recombinant His-tag Wip1(2-420) protein (amino acids #2-420) (Homo sapiens (Human), UniProt O15297). Put plainly: Wip1(2-420) phosphatase enzyme FDP assay. Format: biochemical. To be noted: fluorescein diphosphate (FDP) substrate, RT 2 hours, fluorescence Ex485/Em535; read-out: WIP1 (Truncated 2-420) FDP Assay: IC50.
For `Cc1ncc(Cl)cc1N[C@@H](C)c1ccc(C(=O)N[C@@H](CC2CCCC2)C(=O)NC23COC(C2)C3)s1` [Compound 113, (2S)-2-({5-[(1S)-1-[(5-chloro-2-methylpyridin-3-yl)amino]ethyl]thiophen-2-yl}formamido)-3-cyclopentyl-N-{2-oxabicyclo[2.1.1]hexan-4-yl}propanamide], the IC50 was determined as 11 nM.
Take `CC(Nc1cc(Cl)ccc1C(C)(C)O)c1ccc(C(=O)N[C@@H](CC2CCCC2)C(=O)NC2CC2)s1` (stereo partly drawn) [Compound 229, (2S)-2-{[5-(1-{[5-chloro-2-(2-hydroxypropan-2-yl)phenyl]amino}ethyl)thiophen-2-yl]formamido}-3-cyclopentyl-N-cyclopropylpropanamide]: the 50% inhibitory concentration (IC50) amounted to 20 nM.
With `Cc1ncc(Cl)cc1N[C@@H](C)c1ncc(C(=O)N[C@@H](CC2CCCC2)C(=O)NC2CC2)s1` [Compound 311, (2S)-2-({2-[(1S)-1-[(5-chloro-2-methylpyridin-3-yl)amino]ethyl]-1,3-thiazol-5-yl}formamido)-3-cyclopentyl-N-cyclopropylpropanamide] the figure was 1550 nM; with `Cc1ncc(Cl)cc1N[C@@H](C)c1ccc(C(=O)N[C@@H](CC2CCCC2)C(=O)N[C@H]2C[C@H](C#N)C2)s1` [Compound 211, (2S)-2-({5-[(1S)-1-[(5-chloro-2-methylpyridin-3-yl)amino]ethyl]thiophen-2-yl}formamido)-3-cyclopentyl-N-[(1r,3r)-3-cyanocyclobutyl]propanamide], 10 nM; with `Cc1ncc(Cl)cc1NC(CC1CCN(C)CC1)c1ccc(C(=O)N[C@@H](CC2CCCC2)C(=O)NC2CC2)s1` (stereo partly drawn) [Compound 131, (2S)-2-[(5-{1-[(5-chloro-2-methylpyridin-3-yl)amino]-2-(1-methylpiperidin-4-yl)ethyl}thiophen-2-yl)formamido]-3-cyclopentyl-N-cyclopropylpropanamide], 80 nM.
For `Cc1ncc(Cl)cc1N[C@@H](C)c1ccc(C(=O)N[C@@H](CC2CCCC2)C(=O)N[C@H]2C[C@H](C(=O)O)C2)s1` [Compound 95, (1r,3r)-3-[(2S)-2-({5-[(1S)-1-[(5-chloro-2-methylpyridin-3-yl)amino]ethyl]thiophen-2-yl}formamido)-3-cyclopentylpropanamido]cyclobutane-1-carboxylic acid], the IC50 is 10 nM.
With `Cc1ncc(Cl)cc1N[C@@H](C)c1ccc(C(=O)N[C@@H](CC2CCCC2)C(=O)NC2CC3(CCC3)C2)s1` [Compound 104, (2S)-2-({5-[(1S)-1-[(5-chloro-2-methylpyridin-3-yl)amino]ethyl]thiophen-2-yl}formamido)-3-cyclopentyl-N-{spiro[3.3]heptan-2-yl}propanamide], the concentration for half-maximal inhibition (IC50) amounted to 6 nM.
Turning to `C[C@H](c1ccc(C(=O)N[C@@H](CC2CCCC2)C(=O)NC23CC(C2)C3)s1)N(C)c1cncc(Cl)c1` [Compound 97, (2S)-N-{bicyclo[1.1.1]pentan-1-yl}-2-({5-[(1R)-1-[(5-chloropyridin-3-yl)(methyl)amino]ethyl]thiophen-2-yl}formamido)-3-cyclopentylpropanamide], the IC50 was 11 nM.
Consider `Cc1ncc(Cl)cc1N[C@@H](Cc1ccccc1)c1ccc(C(=O)N[C@@H](CC2CCCC2)C(=O)NC23CC(C2)C3)s1` [Compound 216, (2S)-N-{bicyclo[1.1.1]pentan-1-yl}-2-({5-[(1S)-1-[(5-chloro-2-methylpyridin-3-yl)amino]-2-phenylethyl]thiophen-2-yl}formamido)-3-cyclopentylpropanamide], for which the IC50 was found to be 12 nM.
In the case of `Cc1ncc(Cl)cc1N[C@@H](C)c1ccc(C(=O)N[C@H](C(=O)NC2CC2)C2CCCCC2)s1` [Compound 174, (2S)-2-({5-[(1S)-1-[(5-chloro-2-methylpyridin-3-yl)amino]ethyl]thiophen-2-yl}formamido)-2-cyclohexyl-N-cyclopropylacetamide], the IC50 is 37 nM.
With `Cc1ncc(Cl)cc1N[C@@H](C)c1ccc(C(=O)N[C@@H](CC2CCCC2)C(=O)N[C@H]2C[C@@H](C#N)C2)s1` [Compound 221, (2S)-2-({5-[(1S)-1-[(5-chloro-2-methylpyridin-3-yl)amino]ethyl]thiophen-2-yl}formamido)-3-cyclopentyl-N-[(1s,3s)-3-cyanocyclobutyl]propanamide], the half-inhibitory concentration (IC50) was determined as 6 nM.
In the case of `CNC(=O)c1ncc(Cl)cc1N[C@@H](C)c1ccc(C(=O)N[C@@H](CC2CCCC2)C(=O)NC2CC2)s1` [Compound 196, 5-chloro-3-{[(1S)-1-(5-{[(1S)-2-cyclopentyl-1-(cyclopropylcarbamoyl)ethyl]carbamoyl}thiophen-2-yl)ethyl]amino}-N-methylpyridine-2-carboxamide], the concentration for half-maximal inhibition (IC50) amounted to 6 nM.
Next, `Cc1ncc(Cl)cc1N[C@@H](Cc1ccccc1)c1ccc(C(=O)N[C@@H](CC2CCCC2)C(=O)NC2CC2)s1` [Compound 262, (2S)-2-({5-[(1S)-1-[(5-chloro-2-methylpyridin-3-yl)amino]-2-phenylethyl]thiophen-2-yl}formamido)-3-cyclopentyl-N-cyclopropylpropanamide]: 6 nM.
On to `C[C@H](Nc1cc(Cl)cnc1C(N)=O)c1ccc(C(=O)N[C@@H](CC2CCCC2)C(=O)Nc2cnn(C)c2)s1` [Compound 136, 5-chloro-3-{[(1S)-1-(5-{[(1S)-2-cyclopentyl-1-[(1-methyl-1H-pyrazol-4-yl)carbamoyl]ethyl]carbamoyl}thiophen-2-yl)ethyl]amino}pyridine-2-carboxamide], for which the concentration for half-maximal inhibition (IC50) turned out to be 5 nM.
For `Cc1ncc(Cl)cc1N[C@@H](C)c1ccc(C(=O)N[C@@H](CC2CCCC2)C(=O)N[C@H]2C[C@H](C)C2)s1` [Compound 114, (2S)-2-({5-[(1S)-1-[(5-chloro-2-methylpyridin-3-yl)amino]ethyl]thiophen-2-yl}formamido)-3-cyclopentyl-N-[(1s,3r)-3-methylcyclobutyl]propanamide], the IC50 turned out to be 6 nM.
For the molecule `Cc1ncc(Cl)cc1N[C@H](C)c1ncc(C(=O)N[C@@H](CC2CCCC2)C(=O)NC23CC(C2)C3)s1` [Compound 126, (2S)-N-{bicyclo[1.1.1]pentan-1-yl}-2-({2-[(1R)-1-[(5-chloro-2-methylpyridin-3-yl)amino]ethyl]-1,3-thiazol-5-yl}formamido)-3-cyclopentylpropanamide], the IC50 amounted to 1020 nM.
`CC(Nc1cc(Cl)cnc1C(N)=O)c1ccc(C(=O)N[C@@H](CC2CCCC2)C(=O)NC23CC(C2)C3)s1` (stereo partly drawn) [Compound 172, 3-{[1-(5-{[(1S)-1-({bicyclo[1.1.1]pentan-1-yl}carbamoyl)-2-cyclopentylethyl]carbamoyl}thiophen-2-yl)ethyl]amino}-5-chloropyridine-2-carboxamide]: the IC50 was 10 nM.
As to `Cc1ncc(Cl)cc1N[C@H](Cc1ccccc1)c1ccc(C(=O)N[C@@H](CC2CCCC2)C(=O)NC23CC(C2)C3)s1` [Compound 215, (2S)-N-{bicyclo[1.1.1]pentan-1-yl}-2-({5-[(1R)-1-[(5-chloro-2-methylpyridin-3-yl)amino]-2-phenylethyl]thiophen-2-yl}formamido)-3-cyclopentylpropanamide], the IC50 amounted to 101 nM.
Regarding `Cc1ncc(Cl)cc1N[C@@H](C)c1ccc(C(=O)N[C@@H](CC2CCCC2)C(=O)Nc2cnn(C)c2)s1` [Compound 98, (2S)-2-({5-[(1S)-1-[(5-chloro-2-methylpyridin-3-yl)amino]ethyl]thiophen-2-yl}formamido)-3-cyclopentyl-N-(1-methyl-1H-pyrazol-4-yl)propanamide], the half-inhibitory concentration (IC50) was determined as 6 nM.
